Laboratory results published in ChEMBL document CHEMBL1201862, “PubChem BioAssay data set” (2004).
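Method: 48-hour compound exposure of cells in 96-well plates, five concentrations, linear interpolation of endpoints. GI50: concentration for 50% inhibition of growth.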 The source made the active and inactive calls. No stated cut-off is given here; in the data, active = GI50 up to about 1.1 µM and inactive = higher.

Legend:
Test in all cases: inhibition of tumour cell growth, NCI panel, 48 h
KM12 = test system: KM12
SNB-75 = test system: SNB-75
SF-268 = test system: SF-268
Malme-3M = test system: Malme-3M
SR = test system: SR
COLO 205 = test system: COLO 205
786-0 = test system: 786-0
HOP-92 = test system: HOP-92
MOLT-4 = test system: MOLT-4
LOX IMVI = test system: LOX IMVI
SK-MEL-28 = test system: SK-MEL-28
HT-29 = test system: HT-29
RXF 393 = test system: RXF 393
MDA-MB-435 = test system: MDA-MB-435
SN12C = test system: SN12C
NCI-H522 = test system: NCI-H522
BT-549 = test system: BT-549
M14 = test system: M14
Hs-578T = test system: Hs-578T

Row | SMILES | GI50 (KM12) | GI50 (SNB-75) | GI50 (SF-268) | GI50 (Malme-3M) | GI50 (SR) | GI50 (COLO 205) | GI50 (786-0) | GI50 (HOP-92) | GI50 (MOLT-4) | GI50 (LOX IMVI) | GI50 (SK-MEL-28) | GI50 (HT-29) | GI50 (RXF 393) | GI50 (MDA-MB-435) | GI50 (SN12C) | GI50 (NCI-H522) | GI50 (BT-549) | GI50 (M14) | GI50 (Hs-578T)
1 | Cn1c2ccccc2c(=O)c2ccc(Cl)cc21 | > 10 µM (inactive) | 8.97 µM (inactive) | > 10 µM (inactive) | > 10 µM (inactive) | > 10 µM (inactive) | > 10 µM (inactive) | > 10 µM (inactive) | > 10 µM (inactive) | > 10 µM (inactive) | > 10 µM (inactive) | > 10 µM (inactive) | > 10 µM (inactive) | > 10 µM (inactive) | > 10 µM (inactive) | > 10 µM (inactive) | – | – | – | –
2 | N#CCCN(CCCN(C(=O)Nc1ccccc1)c1ccccc1)C(=O)Nc1ccccc1 | 87.9 µM (inactive) | 44.8 µM (inactive) | – | > 100 µM (inactive) | > 100 µM (inactive) | > 100 µM (inactive) | > 100 µM (inactive) | 71.1 µM (inactive) | 32.6 µM (inactive) | > 100 µM (inactive) | > 100 µM (inactive) | > 100 µM (inactive) | 46.5 µM (inactive) | > 100 µM (inactive) | > 100 µM (inactive) | > 100 µM (inactive) | > 100 µM (inactive) | > 100 µM (inactive) | –
3 | O=C(OCc1ccccc1CN1CCOCC1)c1ccc(Br)cc1 | – | > 100 µM (inactive) | > 100 µM (inactive) | 23.3 µM (inactive) | – | 74.6 µM (inactive) | > 100 µM (inactive) | 93.1 µM (inactive) | – | 55 µM (inactive) | 92 µM (inactive) | 20.5 µM (inactive) | > 100 µM (inactive) | 31 µM (inactive) | 76 µM (inactive) | 28.7 µM (inactive) | 74.8 µM (inactive) | 52.8 µM (inactive) | 69.3 µM (inactive)
4 | O=C1CCC2(CC1)Cc1ccccc1C2O (stereo not drawn) | > 100 µM (inactive) | < 0.01 µM (active) | > 100 µM (inactive) | > 100 µM (inactive) | > 100 µM (inactive) | > 100 µM (inactive) | > 100 µM (inactive) | – | > 100 µM (inactive) | > 100 µM (inactive) | > 100 µM (inactive) | > 100 µM (inactive) | – | – | > 100 µM (inactive) | > 100 µM (inactive) | > 100 µM (inactive) | > 100 µM (inactive) | > 100 µM (inactive)
5 | CCP(=O)(OC)C1=CCN(C(=O)OCC[Si](C)(C)C)CC1 (stereo not drawn) | > 100 µM (inactive) | > 100 µM (inactive) | > 100 µM (inactive) | > 100 µM (inactive) | – | > 100 µM (inactive) | > 100 µM (inactive) | > 100 µM (inactive) | > 100 µM (inactive) | > 100 µM (inactive) | > 100 µM (inactive) | > 100 µM (inactive) | > 100 µM (inactive) | > 100 µM (inactive) | – | > 100 µM (inactive) | – | > 100 µM (inactive) | > 100 µM (inactive)
6 | CCCCC(C(=O)N/N=C/c1ccc([N+](=O)[O-])o1)C(=O)N/N=C/c1ccc([N+](=O)[O-])o1 | 3.66 µM (inactive) | 17.9 µM (inactive) | 5.65 µM (inactive) | 2.2 µM (inactive) | – | 4.28 µM (inactive) | 2.11 µM (inactive) | 1.52 µM (inactive) | 2.09 µM (inactive) | 1.84 µM (inactive) | 3.96 µM (inactive) | 2.14 µM (inactive) | 2.07 µM (inactive) | 5.7 µM (inactive) | 3.66 µM (inactive) | – | 5.61 µM (inactive) | 3.81 µM (inactive) | 2.4 µM (inactive)
7 | O=C(O)CCc1nc2cc3ccccc3cc2[nH]c1=O | > 100 µM (inactive) | > 100 µM (inactive) | > 100 µM (inactive) | – | > 100 µM (inactive) | > 100 µM (inactive) | > 100 µM (inactive) | > 100 µM (inactive) | > 100 µM (inactive) | > 100 µM (inactive) | > 100 µM (inactive) | > 100 µM (inactive) | > 100 µM (inactive) | > 100 µM (inactive) | > 100 µM (inactive) | > 100 µM (inactive) | > 100 µM (inactive) | > 100 µM (inactive) | –
8 | C/C=C/CC(C(=O)OCC)(N(C)C(=O)OC(C)(C)C)S(=O)(=O)c1ccc(C)cc1 (stereo not drawn) | 48.2 µM (inactive) | – | > 100 µM (inactive) | > 100 µM (inactive) | – | 68.1 µM (inactive) | > 100 µM (inactive) | > 100 µM (inactive) | > 100 µM (inactive) | > 100 µM (inactive) | > 100 µM (inactive) | 39.4 µM (inactive) | > 100 µM (inactive) | 25.7 µM (inactive) | > 100 µM (inactive) | 57.7 µM (inactive) | > 100 µM (inactive) | 50.6 µM (inactive) | > 100 µM (inactive)
9 | O=C(/C=C/c1ccc(Cl)cc1)c1cccs1 | 13.9 µM (inactive) | 22.5 µM (inactive) | 29.7 µM (inactive) | 16.6 µM (inactive) | 6.24 µM (inactive) | 19.3 µM (inactive) | 15 µM (inactive) | – | 15.7 µM (inactive) | 11.4 µM (inactive) | 26.2 µM (inactive) | 16.5 µM (inactive) | – | 13 µM (inactive) | 16.5 µM (inactive) | – | – | 20.9 µM (inactive) | 36 µM (inactive)
10 | O=c1[nH]n(Cc2ccccc2)c2ccc([N+](=O)[O-])cc12 | 64.4 µM (inactive) | – | > 100 µM (inactive) | 44.5 µM (inactive) | 69.7 µM (inactive) | > 100 µM (inactive) | 82.4 µM (inactive) | 55.8 µM (inactive) | 34.7 µM (inactive) | 88.7 µM (inactive) | 57.9 µM (inactive) | 41.2 µM (inactive) | 71.9 µM (inactive) | 19.9 µM (inactive) | 49.5 µM (inactive) | 65.5 µM (inactive) | – | 46.2 µM (inactive) | 35.2 µM (inactive)
11 | CN(C)CCNC(=O)c1cccc2c(NC(CCCNC(=N)N)C(=O)O)c3ccccc3[n+](C)c12 (stereo not drawn) | > 100 µM (inactive) | 28.1 µM (inactive) | 29 µM (inactive) | 86.7 µM (inactive) | > 100 µM (inactive) | 38.9 µM (inactive) | 71 µM (inactive) | – | 47.8 µM (inactive) | 66.1 µM (inactive) | > 100 µM (inactive) | > 100 µM (inactive) | – | > 100 µM (inactive) | 32.4 µM (inactive) | – | > 100 µM (inactive) | > 100 µM (inactive) | > 100 µM (inactive)
12 | CC(C)(C)C(=O)/C=C/c1ccc(Oc2ccccc2)cc1 | 14.8 µM (inactive) | 23.4 µM (inactive) | 22 µM (inactive) | 19.2 µM (inactive) | – | – | 19.4 µM (inactive) | – | 6.95 µM (inactive) | – | 32 µM (inactive) | 8.51 µM (inactive) | 27.4 µM (inactive) | – | 19.3 µM (inactive) | 11.2 µM (inactive) | – | 15.3 µM (inactive) | –
13 | Cc1ccc(C)n1-c1ccccc1C1SCCCS1 | > 100 µM (inactive) | 84.5 µM (inactive) | > 100 µM (inactive) | > 100 µM (inactive) | – | > 100 µM (inactive) | > 100 µM (inactive) | > 100 µM (inactive) | > 100 µM (inactive) | > 100 µM (inactive) | > 100 µM (inactive) | 53.3 µM (inactive) | > 100 µM (inactive) | > 100 µM (inactive) | > 100 µM (inactive) | > 100 µM (inactive) | > 100 µM (inactive) | 57.1 µM (inactive) | > 100 µM (inactive)
14 | CN(C)c1ccc(/C=C2\N=C(c3ccccc3)N(c3nc4ccc(Sc5ccccc5)cc4[nH]3)C2=O)cc1 | 27.8 µM (inactive) | 53.2 µM (inactive) | 43.8 µM (inactive) | 99.8 µM (inactive) | – | 21.6 µM (inactive) | 42.2 µM (inactive) | 94.4 µM (inactive) | 30.2 µM (inactive) | 45.2 µM (inactive) | 57.1 µM (inactive) | 32.4 µM (inactive) | 50.2 µM (inactive) | 16.7 µM (inactive) | 45.4 µM (inactive) | 29.2 µM (inactive) | 34.9 µM (inactive) | 43.6 µM (inactive) | 35.2 µM (inactive)
15 | N#Cc1nc(C(CO)N(Cc2ccccc2)C(=O)O)oc1N (stereo not drawn) | > 100 µM (inactive) | > 100 µM (inactive) | > 100 µM (inactive) | – | > 100 µM (inactive) | > 100 µM (inactive) | > 100 µM (inactive) | > 100 µM (inactive) | > 100 µM (inactive) | > 100 µM (inactive) | > 100 µM (inactive) | > 100 µM (inactive) | > 100 µM (inactive) | > 100 µM (inactive) | > 100 µM (inactive) | 12.4 µM (inactive) | > 100 µM (inactive) | > 100 µM (inactive) | –
16 | CCC1(O)CC(OC2CC(N(C)C)C(OC3CC(O)C(OC4OC(C)C(=O)C=C4N)C(C)O3)C(C)O2)c2c(cc3c(c2O)C(=O)c2c(O)cccc2C3=O)C1C(=O)OC (stereo not drawn) | 0.00525 µM (active) | 0.0402 µM (active) | 0.199 µM (active) | 0.0508 µM (active) | 0.00625 µM (active) | 0.00429 µM (active) | 0.00254 µM (active) | 0.0746 µM (active) | 0.0015 µM (active) | 0.046 µM (active) | 0.0272 µM (active) | 0.00889 µM (active) | – | 0.00583 µM (active) | 0.158 µM (active) | 0.0355 µM (active) | – | 0.0345 µM (active) | 0.12 µM (active)
17 | C=C(C)C1CC=C(C)C(=O)C1 (stereo not drawn) [CARVONE] | > 100 µM (inactive) | > 100 µM (inactive) | > 100 µM (inactive) | > 100 µM (inactive) | > 100 µM (inactive) | > 100 µM (inactive) | > 100 µM (inactive) | > 100 µM (inactive) | > 100 µM (inactive) | > 100 µM (inactive) | > 100 µM (inactive) | > 100 µM (inactive) | – | > 100 µM (inactive) | > 100 µM (inactive) | > 100 µM (inactive) | – | > 100 µM (inactive) | > 100 µM (inactive)
